The values that follow come from ChEMBL document CHEMBL1158135, “Sulfated alkenes from the echinus Temnopleurus hardwickii” (J Nat Prod, 2006).

This assay relates to P388. The assay is described as follows: Cytotoxicity against mouse P388 cells after 72 hrs by MTT assay. The format is functional, cell-based. The conditions noted are these: P388, 72 h. Background: Formazan colour is commonly taken as a measure of viable cells.

In the case of `CC(=O)CC(C)(C)N.CC(C)=CCC[C@@H](C)/C=C/CCOS(=O)(=O)O`, half-maximal inhibition (IC50) required 290 µM.
